Measured values: patent US20260102356A1, “METHOD FOR LOADING DIMERIC CD24 INTO HEK293 CELL EXTRACELLULAR VESICLES WITH ADAM10 GENE KNOCKED OUT” (Exocure Sweden AB, priority 2022, published 2026)
“And” between values parts separate entries of the source, which are not always exact repeats. Equal entries are not always repeated.

Assays:
Type in all cases: cell-based, human
PBMCs [1] = test: PBMC inflammation model (anti-CD3/anti-CD28), IFN-γ in supernatant, Example 6
Method: • (1) Preparation of dimeric CD24-Exosomes: The plasmid construction, cell line screening and exosome preparation processes were consistent with those in Example 1. • (2) Loading of MyD88 Inhibitor Polypeptide: dimeric CD24 exosomes were mixed well with MyD88 inhibitor polypeptide (1 mg of MyD88 added to 1E+12 exosome particles). The solution was adjusted to a pH of 8.0 (or 9.0, 10.0) with Na2CO3, and then purified using Capto core700 to remove free MyD88 inhibitor polypeptide. The flow-through was collected to obtain CD24 exosomes loaded with MyD88 inhibitor polypeptide. The loading amount of MyD88 inhibitor polypeptide was assessed using ELISA (peptide loading technology referenced in patent: 202111263036.5). • (3) Detection of the immunosuppressive activity of different EVs and proteins in a PBMC inflammation model: PBMCs were used for the experiment. An inflammation model was established by using 1 μg/ml anti-human CD3 Antibody (coated) and 1 μg/ml anti-human CD28 Antibody (free). The positive drug (dexamethasone), free CD24-Fc fusion protein, and various doses of engineered dimeric CD24 loaded-EV and engineered dimeric CD24+MyD88 inhibitor polypeptide loaded-EV were administered for 72 h or 120 h, and their inhibitory activity on the inflammatory response of PBMCs was assessed

PBMCs [2] = test: PBMC inflammation model (anti-CD3/anti-CD28), IFN-γ in supernatant, Example 4; settings: for IFN-γ_pg/mL-Mean / Detected IFN-γ concentration: PBMC supernatant, anti_hCD3 + anti_hCD28 1 μg/mL, treatment 10 μg/mL, 72 h; for Detected IFN-γ concentration: single replicates
Method: (§1) Detection of the immunosuppressive activity of different EVs and proteins in a PBMC inflammation model: PBMCs were used for the experiment. An inflammation model was established by using 1 g/ml anti-human CD3 Antibody (coated) and 1 μg/ml anti-human CD28 Antibody (free). The positive drug (dexamethasone), free ApoE protein, and various doses of engineered dimeric ApoE-loaded EV were administered for 72 h, and their inhibitory activity on the inflammatory response of PBMCs was assessed.

PBMCs [3] = test: PBMC inflammation model (anti-CD3/anti-CD28), IFN-γ in supernatant, Example 2; settings: anti_hCD3 + anti_hCD28 1 μg/mL, treatment 10 μg/mL, 72 h
Method: as §1, with “1 μg/ml” for “1 g/ml”, “free CD24-Fc” for “free ApoE”, “dimeric CD24-loaded EV and monomer CD24-loaded” for “dimeric ApoE-loaded”

[4] = in vitro PBMC inflammation model

| Compound | IFN-γ_pg/mL-Mean (PBMCs [1]; PBMC supernatant, treatment time 72 h, treatment 10 μg/mL) [pg/mL] | Detected IFN-γ concentration (PBMCs [1]; PBMC supernatant, treatment time 72 h, treatment 10 μg/mL, single replicates) | IFN-γ_pg/mL-Mean (PBMCs [2]) [pg/mL] | Detected IFN-γ concentration (PBMCs [2]) | IFN-γ_pg/mL-Mean (PBMCs [3]) [pg/mL] | Detected IFN-γ concentration (PBMCs [3]; single replicates) | inflammation inhibitory activity compared to the model group (PBMCs [1]; [4]) | inflammation inhibitory activity compared to the model group (PBMCs [2]; [4]) |
| --- | --- | --- | --- | --- | --- | --- | --- | --- |
| C[C@@H]1C[C@H]2[C@@H]3CCC4=CC(=O)C=C[C@]4(C)[C@@]3(F)[C@@H](O)C[C@]2(C)[C@@]1(O)C(=O)CO [Dexamethasone, dexamethasone] | 4.5 | 4.32 pg/mL and 4.76 pg/mL and 4.5 pg/mL | 5.8 | 5.5 pg/mL and 5.8 pg/mL and 6.2 pg/mL | 6.0 | 5.62 pg/mL and 5.78 pg/mL and 6.51 pg/mL | – | – |
| ApoE: free ApoE protein, comparator | – | – | 18092.0 | 18563 pg/mL and 17689 pg/mL and 18024 pg/mL | – | – | better inflammation inhibitory activity | better inflammation inhibitory activity |
